Test results published in patent US10738028B2, “Spiro three-membered ring, spiro five-membered ring peptide deformylase inhibitor and use thereof in antibacteria and anti-tumor” (priority 2016, dated 2020).

Assays:
Type in all cases: cell-based
[1] = system: HCT-116 colorectal cancer cell line; test: CCK-8 proliferation inhibition; details: concentration of 30 μM, 72 hours, CCK-8
Method in brief: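 Cells seeded at 2000 cells/well, cultured overnight at 37 °C, 5% CO2, then exposed to compound (DMSO; control 1‰ DMSO) for 72 h in McCoy's 5A with 10% newborn bovine serum. Viability read with 1:10 diluted CCK-8.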

[2] = system: A549 lung cancer cell line; test: CCK-8 proliferation inhibition; details: concentration of 30 μM
Method in brief: (§1)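 Plating at 2000 cells/well, then incubation overnight at 37° C. Next, a range of compound concentrations for 72 hours (control 1‰ DMSO). Finally, medium decanted and CCK-8 diluted 1:10 added.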

[3] = system: MGC-803 gastric cancer cell line; test: CCK-8 proliferation inhibition; details: Homo sapiens, MGC-803, 72 h, concentration of 30 μM
Method in brief: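 Cells seeded at 2000 cells/well, cultured overnight at 37 °C, 5% CO2, then exposed 72 h to compound dilutions in medium with 10% newborn bovine serum (1‰ DMSO control). Viability read with 1:10 diluted CCK-8 solution. Media: PC3 in F12; MGC-803 and Jurkat in 1640; MCF-7 in DMEM high glucose.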

[4] = system: BEL-7402 liver cancer cell line; test: CCK-8 proliferation inhibition; details: concentration of 30 μM
Method in brief: as §1

[5] = system: Escherichia coli (including ESBLs, non-ESBLs); test: MIC, two-fold agar dilution (CLSI), clinical isolates
Method in brief: (§2)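 Test samples were assayed by the CLSI-recommended two-fold agar dilution method, and the minimum inhibitory concentration against each tested strain was determined.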

[6] = system: methicillin-sensitive Staphylococcus aureus (MSSA); test: as above
Method in brief: as §2

[7] = system: Enterococcus faecium (EFM); test: as above
Method in brief: as §2

[8] = system: Moraxella catarrhalis (BCA); test: as above
Method in brief: as §2

[9] = system: Streptococcus pneoumoniae (SPN); test: as above
Method in brief: as §2

[10] = system: methicillin-sensitive Staphylococcus epidermidis (MSSE); test: as above
Method in brief: as §2

[11] = system: Enterococcus faecalis (EFA); test: as above
Method in brief: as §2

[12] = system: methicillin-resistant Staphylococcus epidermidis (MRSE); test: as above
Method in brief: as §2

[13] = system: methicillin-resistant Staphylococcus aureus (MRSA); test: as above
Method in brief: as §2

## CCCC[C@H](CC(=O)NO)C(=O)N1CC2(CC2)C[C@H]1C(=O)Nc1nc(C(F)(F)F)cs1 [Example 57]
[1]; Homo sapiens, HCT-116, 72 h, read-out: HCT116 inhibition rate/%
  inhibition at 30 µM: > 50%
[1]; 30 µM
  HCT116 inhibition rate/%: 52%
[2]; Homo sapiens, A549, 72 h
  inhibition at 30 µM: > 50%
[2]; 72 hours, 30 µM
  Inhibition of proliferation, Lung cancer A549: 52%
[3]
  inhibition at 30 µM: 34%
[4]; Homo sapiens, Bel-7402, 72 h
  inhibition at 30 µM: > 50%
[4]; 72 hours, 30 µM
  Inhibition of proliferation, Liver cancer BEL-7402: 57%
[5]; clinical isolate ECO+ 15-1
  Anti-bacterial activity (MIC), strain ECO+ 15-1: 32 µg/mL
[5]; clinical isolate ECO+ 15-2
  Anti-bacterial activity (MIC), strain ECO+ 15-2: > 32 µg/mL
[5]; clinical isolate ECO+ 15-3
  Anti-bacterial activity (MIC), strain ECO+ 15-3: > 32 µg/mL
[5]; clinical isolate ECO+ 15-4
  Anti-bacterial activity (MIC), strain ECO+ 15-4: > 32 µg/mL
[5]; clinical isolate ECO− 15-1
  Anti-bacterial activity (MIC), strain ECO− 15-1: > 32 µg/mL
[5]; clinical isolate ECO− 15-2
  Anti-bacterial activity (MIC), strain ECO− 15-2: > 32 µg/mL
[5]; clinical isolate ECO− 15-3
  Anti-bacterial activity (MIC), strain ECO− 15-3: > 32 µg/mL
[5]; clinical isolate ECO− 15-4
  Anti-bacterial activity (MIC), strain ECO− 15-4: > 32 µg/mL
[6]; clinical isolate MSSA 15-3
  Anti-bacterial activity (MIC), strain MSSA 15-3: 0.5 µg/mL
[6]; clinical isolate MSSA 15-4
  Anti-bacterial activity (MIC), strain MSSA 15-4: 0.125 µg/mL
[6]; clinical isolate MSSA 15-5
  Anti-bacterial activity (MIC), strain MSSA 15-5: 0.125 µg/mL
[6]; clinical isolate MSSA 15-6
  Anti-bacterial activity (MIC), strain MSSA 15-6: 0.125 µg/mL
[7]; clinical isolate EFM 15-1
  Anti-bacterial activity (MIC), strain EFM 15-1: 1 µg/mL
[7]; clinical isolate EFM 15-2
  Anti-bacterial activity (MIC), strain EFM 15-2: 2 µg/mL
[7]; clinical isolate EFM 15-3
  Anti-bacterial activity (MIC), strain EFM 15-3: 0.25 µg/mL
[7]; clinical isolate EFM 15-4
  Anti-bacterial activity (MIC), strain EFM 15-4: 1 µg/mL
[7]; clinical isolate EFM 15-5
  Anti-bacterial activity (MIC), strain EFM 15-5: 0.5 µg/mL
[7]; clinical isolate EFM 15-6
  Anti-bacterial activity (MIC), strain EFM 15-6: 4 µg/mL
[8]; clinical isolate BCA 14-1
  Anti-bacterial activity (MIC), strain BCA 14-1: 0.5 µg/mL
[8]; clinical isolate BCA 14-4
  Anti-bacterial activity (MIC), strain BCA 14-4: 0.5 µg/mL
[8]; clinical isolate BCA 14-5
  Anti-bacterial activity (MIC), strain BCA 14-5: 0.5 µg/mL
[8]; clinical isolate BCA 14-6
  Anti-bacterial activity (MIC), strain BCA 14-6: 1 µg/mL
[8]; clinical isolate BCA 14-7
  Anti-bacterial activity (MIC), strain BCA 14-7: 0.25 µg/mL
[8]; clinical isolate BCA 14-8
  Anti-bacterial activity (MIC), strain BCA 14-8: 0.25 µg/mL
[8]; clinical isolate BCA 14-10
  Anti-bacterial activity (MIC), strain BCA 14-10: 0.25 µg/mL
[9]; clinical isolate SPN 16-2
  Anti-bacterial activity (MIC), strain SPN 16-2: 2 µg/mL
[9]; clinical isolate SPN 16-4
  Anti-bacterial activity (MIC), strain SPN 16-4: 0.25 µg/mL
[10]; clinical isolate MSSE 15-3
  Anti-bacterial activity (MIC), strain MSSE 15-3: 0.25 µg/mL
[10]; clinical isolate MSSE 15-4
  Anti-bacterial activity (MIC), strain MSSE 15-4: 0.125 µg/mL
[10]; clinical isolate MSSE 15-5
  Anti-bacterial activity (MIC), strain MSSE 15-5: 0.125 µg/mL
[10]; clinical isolate MSSE 15-6
  Anti-bacterial activity (MIC), strain MSSE 15-6: 0.06 µg/mL
[11]; clinical isolate EFA 15-1
  Anti-bacterial activity (MIC), strain EFA 15-1: 8 µg/mL
[11]; clinical isolate EFA 15-2
  Anti-bacterial activity (MIC), strain EFA 15-2: 8 µg/mL
[11]; clinical isolate EFA 15-3
  Anti-bacterial activity (MIC), strain EFA 15-3: 8 µg/mL
[11]; clinical isolate EFA 15-4
  Anti-bacterial activity (MIC), strain EFA 15-4: 8 µg/mL
[11]; clinical isolate EFA 15-5
  Anti-bacterial activity (MIC), strain EFA 15-5: 8 µg/mL
[11]; clinical isolate EFA 15-6
  Anti-bacterial activity (MIC), strain EFA 15-6: 8 µg/mL
[11]; clinical isolate EFA 15-9
  Anti-bacterial activity (MIC), strain EFA 15-9: 8 µg/mL
[12]; clinical isolate MRSE 15-1
  Anti-bacterial activity (MIC), strain MRSE 15-1: 0.125 µg/mL
[12]; clinical isolate MRSE 15-2
  Anti-bacterial activity (MIC), strain MRSE 15-2: 0.125 µg/mL
[12]; clinical isolate MRSE 15-3
  Anti-bacterial activity (MIC), strain MRSE 15-3: 0.125 µg/mL
[12]; clinical isolate MRSE 15-7
  Anti-bacterial activity (MIC), strain MRSE 15-7: 0.25 µg/mL
[13]; clinical isolate MRSA 15-1
  Anti-bacterial activity (MIC), strain MRSA 15-1: 0.5 µg/mL
[13]; clinical isolate MRSA 15-2
  Anti-bacterial activity (MIC), strain MRSA 15-2: 0.5 µg/mL
[13]; clinical isolate MRSA 15-3
  Anti-bacterial activity (MIC), strain MRSA 15-3: 0.5 µg/mL
[13]; clinical isolate MRSA 15-4
  Anti-bacterial activity (MIC), strain MRSA 15-4: 0.5 µg/mL
